Laboratory results: ChEMBL document CHEMBL1201862, “PubChem BioAssay data set” (2004)
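Exposure lasted 48 hours, with cells grown in 96-well plates and compounds tested at five concentrations. Here, GI50 denotes the concentration required for 50% inhibition of growth.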 Activity calls are given as the source filed them. No stated cut-off is given here; in the data, active = GI50 up to about 1.1 µM and inactive = higher.

Legend:
Assay in all cases: NCI tumour cell line growth inhibition, 48 h
[1] = test system: Malme-3M
[2] = test system: HT-29
[3] = test system: SNB-75
[4] = test system: ACHN
[5] = test system: KM12
[6] = test system: HL-60
[7] = test system: HOP-92
[8] = test system: NCI-H460
[9] = test system: UACC-257
[10] = test system: SK-OV-3
[11] = test system: SN12C
[12] = test system: HCT-15
[13] = test system: SF-539
[14] = test system: U-251
[15] = test system: CAKI-1
[16] = test system: MOLT-4
[17] = test system: SR

Row | Structure (SMILES) | GI50 [1] | GI50 [2] | GI50 [3] | GI50 [4] | GI50 [5] | GI50 [6] | GI50 [7] | GI50 [8] | GI50 [9] | GI50 [10] | GI50 [11] | GI50 [12] | GI50 [13] | GI50 [14] | GI50 [15] | GI50 [16] | GI50 [17]
1 | COC(=O)C(Cc1c[nH]c2ccccc12)NC(=O)C(Cc1c[nH]c2ccccc12)NC(=O)OCc1ccccc1 (stereo not drawn) | 39.6 µM (inactive) | 20 µM (inactive) | 21.6 µM (inactive) | 21.6 µM (inactive) | 19.1 µM (inactive) | 20.8 µM (inactive) | 20 µM (inactive) | 18.1 µM (inactive) | > 100 µM (inactive) | 19.7 µM (inactive) | 17.1 µM (inactive) | 17.4 µM | 16.7 µM (inactive) | 16.9 µM (inactive) | 19.9 µM (inactive) | – | –
2 | O=C(CCC(=O)C(C(=O)c1ccccc1)c1ccccc1)Nc1cccc(C(F)(F)F)c1 (stereo not drawn) | > 100 µM (inactive) | > 100 µM (inactive) | – | > 100 µM (inactive) | > 100 µM (inactive) | > 100 µM (inactive) | > 100 µM (inactive) | > 100 µM (inactive) | > 100 µM (inactive) | > 100 µM (inactive) | > 100 µM (inactive) | > 100 µM | > 100 µM (inactive) | > 100 µM (inactive) | > 100 µM (inactive) | > 100 µM (inactive) | –
3 | COCOCc1cc(OCc2ccccc2)c(OC)cc1Br | > 100 µM (inactive) | > 100 µM (inactive) | > 100 µM (inactive) | 82.6 µM (inactive) | > 100 µM (inactive) | – | > 100 µM (inactive) | > 100 µM (inactive) | > 100 µM (inactive) | – | > 100 µM (inactive) | 40.9 µM | > 100 µM (inactive) | > 100 µM (inactive) | 64.3 µM (inactive) | – | 63.1 µM (inactive)
4 | O=c1[nH]c2c(c3ccccc13)CCc1ccccc1-2 | > 100 µM (inactive) | > 100 µM (inactive) | > 100 µM (inactive) | > 100 µM (inactive) | > 100 µM (inactive) | – | – | – | > 100 µM (inactive) | > 100 µM (inactive) | > 100 µM (inactive) | > 100 µM | > 100 µM (inactive) | > 100 µM (inactive) | > 100 µM (inactive) | > 100 µM (inactive) | > 100 µM (inactive)
5 | O=C(NCC#CCO)C(F)(F)F | > 100 µM (inactive) | > 100 µM (inactive) | – | > 100 µM (inactive) | > 100 µM (inactive) | – | – | > 100 µM (inactive) | > 100 µM (inactive) | 97.5 µM (inactive) | > 100 µM (inactive) | > 100 µM | > 100 µM (inactive) | > 100 µM (inactive) | > 100 µM (inactive) | > 100 µM (inactive) | > 100 µM (inactive)
6 | COc1ccc(-c2onc(-c3ccc([N+](=O)[O-])cc3)c2C2=NCCN2)cc1 | > 100 µM (inactive) | 33.3 µM (inactive) | 20.9 µM (inactive) | 38.1 µM (inactive) | > 100 µM (inactive) | > 100 µM (inactive) | – | 45.9 µM (inactive) | 18.5 µM (inactive) | – | 67.5 µM (inactive) | > 100 µM | 38 µM (inactive) | 67.6 µM (inactive) | > 100 µM (inactive) | > 100 µM (inactive) | > 100 µM (inactive)
7 | N#CC(C#N)=c1c2nsnc2c(=C(C#N)C#N)c2nsnc12 | 1.65 µM (inactive) | 1.59 µM (inactive) | 1.51 µM (inactive) | 1.81 µM (inactive) | 1.85 µM (inactive) | 2.27 µM (inactive) | 1.45 µM (inactive) | 2.08 µM (inactive) | 1.94 µM (inactive) | – | – | – | 1.93 µM (inactive) | 1.79 µM (inactive) | 1.86 µM (inactive) | – | –
8 | Cc1nc2c(N)ncnc2o1 | > 100 µM (inactive) | > 100 µM (inactive) | > 100 µM (inactive) | > 100 µM (inactive) | > 100 µM (inactive) | > 100 µM (inactive) | > 100 µM (inactive) | > 100 µM (inactive) | > 100 µM (inactive) | > 100 µM (inactive) | > 100 µM (inactive) | > 100 µM | > 100 µM (inactive) | > 100 µM (inactive) | > 100 µM (inactive) | > 100 µM (inactive) | –
9 | O=[N+]([O-])C(=C(c1ccccc1)c1ccccc1)[N+](=O)[O-] | – | > 10 µM (inactive) | 10.2 µM (inactive) | 12.8 µM (inactive) | 15.5 µM (inactive) | 3.32 µM (inactive) | – | 5.57 µM (inactive) | 13.1 µM (inactive) | – | 15.5 µM (inactive) | 13.8 µM | 13.6 µM (inactive) | 13.6 µM (inactive) | 21.1 µM (inactive) | 3.32 µM (inactive) | 3.29 µM (inactive)
10 | CC(=O)Nc1ccc(OCC(O)CO)cc1 (stereo not drawn) | > 100 µM (inactive) | > 100 µM (inactive) | > 100 µM (inactive) | > 100 µM (inactive) | > 100 µM (inactive) | – | > 100 µM (inactive) | > 100 µM (inactive) | > 100 µM (inactive) | > 100 µM (inactive) | > 100 µM (inactive) | 29.5 µM | > 100 µM (inactive) | 56.5 µM (inactive) | > 100 µM (inactive) | > 100 µM (inactive) | > 100 µM (inactive)
11 | C=CCN1CCC23c4c5ccc(O)c4OC2C(=NN=C2CCC4(O)C6Cc7ccc(O)c8c7C4(CCN6CC=C)C2O8)CCC3(O)C1C5 (stereo not drawn) | 19.1 µM (inactive) | 18.3 µM (inactive) | 17.1 µM (inactive) | 20.2 µM (inactive) | 21.2 µM (inactive) | > 10 µM (inactive) | 17.6 µM (inactive) | 20.5 µM (inactive) | 23.9 µM (inactive) | 37.5 µM (inactive) | 23 µM (inactive) | 35.5 µM | 18.6 µM (inactive) | 18.9 µM (inactive) | 44.5 µM (inactive) | 38.3 µM (inactive) | –
12 | Cc1cc2c(=O)c3ccc(Cl)cc3[nH]c2c(C(=O)O)c1C | > 100 µM (inactive) | > 100 µM (inactive) | > 100 µM (inactive) | > 100 µM (inactive) | 32.4 µM (inactive) | – | – | > 100 µM (inactive) | > 100 µM (inactive) | > 100 µM (inactive) | > 100 µM (inactive) | > 100 µM | > 100 µM (inactive) | > 100 µM (inactive) | > 100 µM (inactive) | > 100 µM (inactive) | –
13 | CC(C)(C)C(=O)Nc1ccccc1Br | > 100 µM (inactive) | > 100 µM (inactive) | > 100 µM (inactive) | > 100 µM (inactive) | > 100 µM (inactive) | > 100 µM (inactive) | > 100 µM (inactive) | > 100 µM (inactive) | > 100 µM (inactive) | > 100 µM (inactive) | > 100 µM (inactive) | > 100 µM | – | > 100 µM (inactive) | > 100 µM (inactive) | > 100 µM (inactive) | –
14 | CC(C)C1COC(c2ccc3ccccc3c2-c2c(O[Si](C)(C)C(C)(C)C)ccc3ccccc23)=N1 (stereo not drawn) | 18.4 µM (inactive) | 15.5 µM (inactive) | 17.9 µM (inactive) | 18.9 µM (inactive) | 17.9 µM (inactive) | 16.1 µM (inactive) | 13.6 µM (inactive) | 19.6 µM (inactive) | 18.2 µM (inactive) | 19.8 µM (inactive) | 16.6 µM (inactive) | 22.3 µM | 16.9 µM (inactive) | – | 21.9 µM (inactive) | 15.6 µM (inactive) | –
15 | CCCCN(CCCC)CCCn1cnc2ncccc2c1=O | > 100 µM (inactive) | > 100 µM (inactive) | > 100 µM (inactive) | > 100 µM (inactive) | > 100 µM (inactive) | – | > 100 µM (inactive) | > 100 µM (inactive) | – | > 100 µM (inactive) | > 100 µM (inactive) | – | > 100 µM (inactive) | > 100 µM (inactive) | > 100 µM (inactive) | > 100 µM (inactive) | > 100 µM (inactive)
16 | Cc1ccccc1NC(=O)C(=O)c1c(O)c2ccc(O)cc2oc1=O | > 100 µM (inactive) | > 100 µM (inactive) | > 100 µM (inactive) | > 100 µM (inactive) | > 100 µM (inactive) | > 100 µM (inactive) | > 100 µM (inactive) | > 100 µM (inactive) | > 100 µM (inactive) | > 100 µM (inactive) | > 100 µM (inactive) | > 100 µM | – | > 100 µM (inactive) | > 100 µM (inactive) | > 100 µM (inactive) | –
17 | CSc1ccc2c(cc1=O)C(NC(=O)c1ccc(OC(C)=O)cc1)CCc1cc(O)c(O)c(O)c1-2 (stereo not drawn) | 48.9 µM (inactive) | 19.6 µM (inactive) | 20 µM (inactive) | 66.8 µM (inactive) | 32 µM (inactive) | 3.31 µM (inactive) | – | 23.2 µM (inactive) | 19.5 µM (inactive) | 38.4 µM (inactive) | 16.3 µM (inactive) | 18.8 µM | 19.1 µM (inactive) | 20.4 µM (inactive) | – | 5.11 µM (inactive) | 7.94 µM (inactive)
18 | CCCN(CCC)c1c([N+](=O)[O-])cc(C(N)=O)cc1[N+](=O)[O-] | 62.1 µM (inactive) | > 100 µM (inactive) | > 100 µM (inactive) | > 100 µM (inactive) | > 100 µM (inactive) | 27.8 µM (inactive) | – | 68.2 µM (inactive) | 49.4 µM (inactive) | 58.3 µM (inactive) | > 100 µM (inactive) | 62.2 µM | > 100 µM (inactive) | 69 µM (inactive) | 37.2 µM (inactive) | 37 µM (inactive) | –
19 | CC12CCC(=O)N1c1ccc([N+](=O)[O-])cc1N2 (stereo not drawn) | > 100 µM (inactive) | > 100 µM (inactive) | > 100 µM (inactive) | > 100 µM (inactive) | > 100 µM (inactive) | 92.9 µM (inactive) | – | – | > 100 µM (inactive) | > 100 µM (inactive) | > 100 µM (inactive) | > 100 µM | > 100 µM (inactive) | > 100 µM (inactive) | – | 83.4 µM (inactive) | 71 µM (inactive)
